Measurements published in BindingDB's records for doi:10.1021/jm00089a013 (Merck Sharp and Dohme Research Laboratories, 1992).

Experiment: In vitro binding affinity against sigma receptor by using [3H]-DTG ([3H]-6) as radioligand in guinea pig cerebellum.

In order of falling IC50:
1. Oc1ccc2c(c1)C1(CCC2)CCN(Cc2ccccc2)CC1  69 nM
2. C=CCN1CCC2(CCCc3ccccc32)CC1  18 nM
3. c1ccc(CN2CCC3(CCc4ccccc43)CC2)nc1  16 nM
4. O=[N+]([O-])c1ccc(CN2CCC3(CCCc4ccccc43)CC2)cc1  14 nM
5. c1ccc2c(c1)CCCC21CCN(CC2CC2)CC1  10 nM
6. c1coc(CN2CCC3(CCCc4ccccc43)CC2)c1  9.5 nM
7. Clc1ccc(CN2CCC3(CCCc4ccccc43)CC2)cc1  6.8 nM
8. c1ccc(CN2CCC3(CCCCc4ccccc43)CC2)cc1  6.8 nM
9. C=CCCN1CCC2(CCCc3ccccc32)CC1  6.6 nM
10. c1csc(CN2CCC3(CCCc4ccccc43)CC2)c1  6.3 nM
11. Cc1ccc(CN2CCC3(CCc4ccccc43)CC2)cc1  5.9 nM
12. Cc1ccc2c(c1)CCCC21CCN(Cc2ccccc2)CC1  5.5 nM
13. c1ccc2c(c1)CCCC21CCN(CC2CCCO2)CC1 (stereo not given)  5.5 nM
14. c1ccc(CCN2CCC3(CCCc4ccccc43)CC2)cc1  5 nM
15. CCCCN1CCC2(CCCCc3ccccc32)CC1  4.8 nM
16. COc1ccc(CN2CCC3(CCc4ccccc43)CC2)cc1  3.5 nM
17. CCCCCCN1CCC2(CCCc3ccccc32)CC1  2.9 nM
18. c1ccc(CCN2CCC3(CCc4ccccc43)CC2)cc1  2.8 nM
19. CCCCN1CCC2(CCc3ccccc32)CC1  2 nM
20. COc1ccc(CN2CCC3(CCCc4ccccc43)CC2)cc1  1.7 nM
